Assay results as given in patent US20230339915A1 (Vertex Pharmaceuticals Incorporated, priority 2020, published 2023).

Tests used:
[1] = molecular target: NL20 human bronchial epithelial cells expressing human Z-AAT (Homo sapiens (Human), UniProt P01009, E366K); assay: AAT Function Assay (MSD Assay NL20-SI Cell Line); format: cell-based; settings: functionally active AAT (AAT-hNE complex, MSD) in supernatant of NL20 cells expressing human Z-AAT; read-out: NL20 Functional EC50
Summary of the method: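 NL20 bronchial epithelial cells expressing Z-AAT, induced with 0.1 μM doxycycline, were treated with compound overnight. Functional AAT in supernatant was measured by complex formation with excess human neutrophil elastase, captured on anti-AAT plates, detected with Sulfo-tagged anti-elastase on MSD, and quantified against M-AAT standards (0.156–320 ng/mL).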

[2] = molecular target: purified Z-AAT protein from human plasma (Homo sapiens (Human), UniProt P01009, E366K); assay: Biochemical Assay (Z-AAT Elastase Activity Assay); settings: purified Z-AAT pre-incubated with compound 1 hour, then human neutrophil elastase and fluorescent substrate
Summary of the method: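 Purified plasma Z-AAT (20 nM) preincubated with compounds 1 h at room temperature, then 3 nM human neutrophil elastase added in PBS + 0.01% BRIJ35 for 30 min to form suicide complex. Residual elastase activity read immediately by fluorescence after adding 300 μM MeOSuc-AAPV-AMC substrate solution.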

Chain of purified Z-AAT protein from human plasma (P01009 25-418 E366K limits assumed): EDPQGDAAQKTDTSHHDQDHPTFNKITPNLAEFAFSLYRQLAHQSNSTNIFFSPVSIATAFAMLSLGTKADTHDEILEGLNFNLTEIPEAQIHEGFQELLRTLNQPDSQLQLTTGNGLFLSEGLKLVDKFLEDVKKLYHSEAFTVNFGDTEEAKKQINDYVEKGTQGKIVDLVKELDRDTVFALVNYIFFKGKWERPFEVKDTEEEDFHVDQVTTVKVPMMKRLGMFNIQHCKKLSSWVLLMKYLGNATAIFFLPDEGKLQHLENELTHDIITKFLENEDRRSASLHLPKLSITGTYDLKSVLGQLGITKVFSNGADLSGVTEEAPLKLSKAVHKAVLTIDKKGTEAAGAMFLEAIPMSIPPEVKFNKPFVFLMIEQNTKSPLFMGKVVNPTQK
Chain of NL20 human bronchial epithelial cells expressing human Z-AAT (P01009 25-418 E366K limits assumed): as above

| EC50 [1] | IC50 [2] | SMILES |
| --- | --- | --- |
| > 2 µM | > 5 µM | Cc1cc(-n2c(C(C)C)c(/C=C/C(=O)O)c3cc(O)c(F)cc32)ccc1F [Compound 181, (E)-3-(6-fluoro-1-(4-fluoro-3-methylphenyl)-5-hydroxy-2-isopropyl-1H-indol-3-yl)acrylic acid] |
| 0.5 to 2 µM | > 5 µM | O=C(O)[C@]1(C(F)(F)F)C[C@@H](c2c(C3CCOCC3)n(-c3ccc(F)c(Cl)c3)c3ccc(O)cc32)C1 [Compound 37] |
| 0.5 to 2 µM | > 30 µM | CC(C)c1c(CCC(C)(C)C(=O)O)c2cc(O)ccc2n1-c1ccc(F)cc1 [Compound 70] |
| > 2 µM | > 30 µM | O=C(O)[C@H]1CC[C@@H](c2c(C3CCOCC3)n(-c3ccc(F)c(Cl)c3)c3ccc(O)cc32)CC1 [Compound 24] |
| > 2 µM | > 30 µM | COC[C@]1(C(=O)O)C[C@@H](c2c(C3CCOCC3)n(-c3ccc(F)c(C)c3)c3ccc(O)cc32)C1 [Compound 107, cis-3-(1-(4-fluoro-3-methylphenyl)-5-hydroxy-2-(tetrahydro-2H-pyran-4-yl)-1H-indol-3-yl)-1-(methoxymethyl)cyclobutane-1-carboxylic acid] |
| > 2 µM | > 30 µM | CO[C@]1(C(=O)O)C[C@@H](c2c(C(C)C)n(-c3ccc(F)c(C)c3)c3ccc(O)cc32)C1 [Compound 67] |
| 0.5 to 2 µM | > 5 µM | C[C@]1(C(=O)O)C[C@H](c2c(C3CCOCC3)n(-c3ccc(F)c(Cl)c3)c3ccc(O)cc32)C1 [Compound 27] |
| 0.5 to 2 µM | < 2 µM | CC(C)(CC#N)c1c(-c2ccc(C(=O)O)cc2)c2cc(O)ccc2n1-c1ccc(F)cc1 [Compound 165, 4-(2-(1-cyano-2-methylpropan-2-yl)-1-(4-fluorophenyl)-5-hydroxy-1H-indol-3-yl)benzoic acid] |
| > 2 µM | > 30 µM | Cc1cc(-n2c(C(C)C)c(C3CCOC(C(=O)O)C3)c3cc(O)ccc32)ccc1F (stereo not shown) [Compound 64] |
| 0.5 to 2 µM | > 5 µM | CC(C)c1c([C@H]2C[C@H](C(=O)O)C2)c2cc(O)ccc2n1-c1ccc(F)c(F)c1 [Compound 141, trans-3-(1-(3,4-difluorophenyl)-5-hydroxy-2-isopropyl-1H-indol-3-yl)cyclobutane-1-carboxylic acid] |
| > 2 µM | > 5 µM | Cc1cc(-n2c(C(C)C)c([C@@H]3COC[C@@H]3C#N)c3cc(O)ccc32)ccc1F [Compound 216] |
| > 2 µM | > 30 µM | Cc1cc(-n2c(C)c(CC(=O)O)c3cc(O)ccc32)ccn1 [Compound 161] |
| > 2 µM | > 30 µM | Cc1cc(-n2c(C(C)C)c(CC(=O)O)c3cc(O)ccc32)ccc1F [Compound 153, 2-(1-(4-fluoro-3-methylphenyl)-5-hydroxy-2-isopropyl-1H-indol-3-yl)acetic acid] |
| > 2 µM | > 30 µM | O=C(O)[C@H]1C[C@H](c2c(C3CCOCC3)n(-c3ccc(F)cc3)c3ccc(O)cc32)C1 [Compound 45] |
| > 2 µM | > 30 µM | Cc1cc(-n2c(C3CCOCC3)c(CCC(F)(F)C(=O)O)c3cc(O)ccc32)ccc1F [Compound 10] |
| 0.5 to 2 µM | > 30 µM | Cc1cc(-n2c(C3CCOCC3)c(C[C@H]3C[C@@H](C(=O)O)C3)c3cc(O)ccc32)ccc1F [Compound 8] |
| > 2 µM | > 30 µM | CCC(C(=O)O)c1c(C)n(-c2ccc(F)c(C)c2)c2ccc(O)cc12 (stereo not shown) [Compound 158] |
| > 2 µM | > 30 µM | O=C(O)[C@]1(CF)C[C@@H](c2c(C3CCOCC3)n(-c3ccc(F)cc3)c3ccc(O)cc32)C1 [Compound 118] |
| > 2 µM | > 30 µM | Cc1cc(-n2c(C)c(C#N)c3cc(O)c(N)cc32)ccc1F [Compound 211, 6-amino-1-(4-fluoro-3-methylphenyl)-5-hydroxy-2-methyl-1H-indole-3-carbonitrile] |
| > 2 µM | > 30 µM | Cc1cc(-n2c([C@@H]3CCOC3)c([C@H]3C[C@H](C(=O)O)C3)c3cc(O)ccc32)ccc1F [Compound 84] |
| > 2 µM | > 30 µM | O=C(O)[C@H]1C[C@@H](c2c(C3CCOCC3)n(-c3ccc(F)cc3)c3ccc(O)cc32)C1 [Compound 46] |
| > 2 µM | > 5 µM | Cc1c(C2(C#N)CC2)c2cc(O)ccc2n1-c1ccc(F)cc1 [Compound 184, 1-(1-(4-fluorophenyl)-5-hydroxy-2-methyl-1H-indol-3-yl)cyclopropane-1-carbonitrile] |
| < 0.5 µM | > 30 µM | Cc1cc(-n2c(C(C)C)c(CCC(=O)O)c3cc(O)c(F)cc32)ccc1F [Compound 163, 3-(6-fluoro-1-(4-fluoro-3-methylphenyl)-5-hydroxy-2-isopropyl-1H-indol-3-yl)propanoic acid] |
| > 2 µM | > 5 µM | CC(C)c1c([C@H]2C[C@@H](C(=O)O)C2)c2cc(O)ccc2n1-c1ccc(F)c(Cl)c1 [Compound 78] |
| > 2 µM | > 30 µM | Cc1cc(-n2c(C(C)C)c([C@H]3CC[C@@H](C(=O)O)C3)c3cc(O)ccc32)ccc1F (racemic) [Compound 74] |

| EC50 [1] | IC50 [2] | SMILES |
| --- | --- | --- |
| 0.5 to 2 µM | > 30 µM | Cc1cc(-n2c(C(C)C)c([C@H]3C[C@@](C)(C(=O)O)C3)c3c(F)c(O)c(F)cc32)ccc1F [Compound 23] |
| > 2 µM | > 30 µM | C[C@]1(C(=O)O)C[C@@H](c2c(C3CCOCC3)n(-c3ccc(F)c(F)c3)c3ccc(O)cc32)C1 [Compound 40] |
| > 2 µM | > 30 µM | CCCn1c(C(C)(C)C)c(C#N)c2cc(O)ccc21 [Compound 205, 2-(tert-butyl)-5-hydroxy-1-propyl-1H-indole-3-carbonitrile] |
| 0.5 to 2 µM | > 5 µM | CCC(OC)c1c(C#N)c2cc(O)ccc2n1-c1ccc(F)cc1 (racemic) [Compound 190, 1-(4-fluorophenyl)-5-hydroxy-2-(1-methoxypropyl)indole-3-carbonitrile] |
| > 2 µM | > 30 µM | Cc1cc(-n2c(C3CCOCC3)c([C@H]3C[C@H](C(=O)O)C3)c3cc(O)ccc32)ccc1F [Compound 20] |
| > 2 µM | > 30 µM | O=C(O)[C@H]1C[C@@H](c2c(C3CCOCC3)n(-c3cc(F)cc(F)c3)c3ccc(O)cc32)C1 [Compound 113] |
| 0.5 to 2 µM | > 30 µM | Cc1cc(-n2c(C(C)C)c(CCC(=O)O)c3cc(O)ccc32)ccc1F [Compound 122] |
| > 2 µM | > 30 µM | Cc1cc(-n2c(C(C)C)c(C3CN(CC(=O)O)C3)c3cc(O)ccc32)ccc1F [Compound 147] |
| 0.5 to 2 µM | 2 to 5 µM | Cc1cc(-n2c(C(C)C)c([C@H]3C[C@H](C(=O)O)C3)c3c(F)c(O)ccc32)ccc1F [Compound 89] |
| 0.5 to 2 µM | > 30 µM | CC(C)(CCc1c(C2CCOCC2)n(-c2ccc(F)c(Cl)c2)c2ccc(O)cc12)C(=O)O [Compound 29] |
| > 2 µM | > 30 µM | O=C(O)[C@]1(CF)C[C@H](c2c(C3CCOCC3)n(-c3ccc(F)cc3)c3ccc(O)cc32)C1 [Compound 119] |
| > 2 µM | > 30 µM | O=C(O)[C@H]1C[C@H](Cc2c(C3CCOCC3)n(-c3ccc(F)cc3)c3ccc(O)cc23)C1 [Compound 36] |
| < 0.5 µM | > 30 µM | N#Cc1c(C2CC2)n(-c2ccc(F)cc2)c2ccc(O)cc12 [Compound 203] |
| > 2 µM | > 30 µM | Cc1cc(-n2c([C@H]3CCOC3)c([C@H]3C[C@@H](C(=O)O)C3)c3cc(O)ccc32)ccc1F [Compound 87] |
| < 0.5 µM | 2 to 5 µM | Cc1cc(-n2c(C(C)C)c(C3CC4(CC(C(=O)O)C4)C3)c3cc(O)ccc32)ccc1F (stereo not shown) [Compound 97] |
| > 2 µM | > 30 µM | Cc1cc(-n2c(C3CC3)c([C@H]3C[C@H](C(=O)O)C3)c3cc(O)ccc32)ccc1F [Compound 93] |
| > 2 µM | > 30 µM | C[C@]1(C(=O)O)C[C@@H](c2c(C3CCOCC3)n(-c3ccccc3)c3ccc(O)cc32)C1 [Compound 52] |
| > 2 µM | > 30 µM | COC(C)(Cc1c(C(C)C)n(-c2ccc(F)c(C)c2)c2ccc(O)cc12)C(=O)O (stereo not shown) [Compound 151, 3-(1-(4-fluoro-3-methylphenyl)-5-hydroxy-2-isopropyl-1H-indol-3-yl)-2-methoxy-2-methylpropanoic acid] |
| > 2 µM | > 30 µM | O=C(O)[C@]1(CF)C[C@@H](c2c(C3CCOCC3)n(-c3ccc(F)c(Cl)c3)c3ccc(O)cc32)C1 [Compound 110] |
| > 2 µM | > 30 µM | Cc1cc(-n2c(C(C)C)c([C@H]3C[C@H]3C(=O)O)c3cc(O)ccc32)ccc1F [Compound 128] |
| > 2 µM | > 30 µM | CC(C)c1c([C@H]2C[C@@H](C(=O)O)C2)c2cc(O)ccc2n1-c1ccc(F)cc1 [Compound 91] |
| > 2 µM | > 30 µM | N#Cc1c(C2CCNCC2)n(-c2ccc(F)cc2)c2ccc(O)cc12 [Compound 200] |
| < 0.5 µM | > 30 µM | CC(C)c1c(C#N)c2cc(O)ccc2n1-c1ccc(F)cc1 [Compound 185, 1-(4-fluorophenyl)-5-hydroxy-2-isopropyl-1H-indole-3-carbonitrile] |
| 0.5 to 2 µM | > 30 µM | N#Cc1c(C2CCC2)n(-c2ccc(F)cc2)c2ccc(O)cc12 [Compound 188] |
| > 2 µM | > 30 µM | C[C@]1(C(=O)O)C[C@@H](c2c(C3CCOCC3)n(-c3ccc(F)cc3)c3ccc(O)cc32)C1 [Compound 49] |
